Patent US20020115649A1, “Use of texaphyrins in macrophage-mediated disease” (Pharmacyclics, Inc., priority 1998, published 2002)

What was measured:
[1] = system: restenosis of balloon-injured carotid artery; test: Radiation therapy of balloon-injured rat carotid artery in preventing restenosis; format: in vivo, Sprague-Dawley male rats; conditions: 2 weeks post-treatment
Description: The rat carotid model was used for the studies. Sprague-Dawley male rats weighing about 400-450 g were anesthetized and maintained with Ketamine/Rompun cocktail via the animal's tail vein. The rats were shaved to expose the chest and neck, and a midline incision was made to expose the left common carotid artery, the external carotid artery, and the internal carotid artery. The internal carotid artery was temporally ligated. A small incision was made in the external carotid artery and a 2F Fogarty arterial embolectomy balloon catheter (Baxter Cardiovascular Group, Irvine, Calif.) was introduced from the external carotid artery to the common carotid artery. The balloon was inflated with 0.2 ml of saline and withdrawn from near to the common carotid bifurcation with a rotating motion to produce uniform endothelial denudation and medial stretching in the common carotid artery. After 3 passages, the catheter was removed, the external carotid artery was ligated, and the internal carotid artery was untied. The incision was then closed.
GdT2BET (2mM in 5% mannitol) at 20 μmol/kg was injected via the tail vein 22 hours following balloon denudation of the carotid artery. Radiation therapy was performed 2 hours after the gadolinium texaphyrin injection. The treatment area was marked and a 250 kV X-ray radiation machine was used. […]

[2] = Cardiac toxicity study for texaphyrin and doxorubicin; format: in vivo, Sprague Dawley rats; conditions: 20 micromoles/kg i.v. 1 hour after doxorubicin 1 mg/kg, once a week for twelve weeks; versus doxorubicin alone
Method: To test whether gadolinium texaphyrin exacerbates cardiac toxicity, Sprague Dawley rats were injected intravenously either with 5% mannitol (10 ml/kg, n=6), or doxorubicin (1 mg/kg, n=14), or doxorubicin (1 mg/kg) followed 1 hour later by gadolinium texaphyrin (20 micromoles/kg, n=14). The dosing schedule was repeated once a week for twelve weeks. Animals were sacrificed one week post the last dose, and hearts were fixed in formalin.

[3] = Maximum tolerated dose of lutetium texaphyrin in one study; format: in vivo; conditions: intravenous injection; determined in one study
Method: Administration for Photodynaminc Therapy: By way of example, lutetium texaphyrin is administered in solution containing 2 mg/ml optionally in 5% mannitol, USP. Dosages of about 1.0 or 2.0 mg/kg to about 4.0 or 5.0 mg/kg, preferably 3.0 mg/kg may be employed, up to a maximum tolerated dose that was determined in one study to be 5.2 mg/kg. The texaphyrin is administered by intravenous injection, followed by a waiting period of from as short a time as several minutes or about 3 hours to as long as about 72 or 96 hours (depending on the treatment being effected) to facilitate intracellular uptake and clearance from the plasma and extracellular matrix prior to the administration of photoirradiation.

[4] = system: macrophage of restenotic tissue; test: Photodynamic therapy of balloon-induced iliac artery lesions (local delivery plus intravascular light); format: in vivo, New Zealand White rabbits
Method: Bilateral iliac artery lesions were induced in 9 male New Zealand White rabbits (NZW) after being on a high cholesterol diet (1%, Dyets, Bethlehem, Pa.) for 3 weeks. Each rabbit was anesthetized using a mixture of ketamine […]. The right carotid artery was exposed, carefully excised and a 5 Fr sheath (USCI) inserted into the descending aorta under fluoroscopic guidance. A 3.0 mm angioplasty balloon was advanced into the right or left iliac artery and then inflated distal to the deep femoral artery three times at 8 atm for 30 seconds. Subsequently, the same procedure was repeated in the contralateral iliac artery. Animals were maintained on the high cholesterol diet.
Six weeks after the denudation, each rabbit was reanesthetized. The left carotid artery was exposed, carefully excised and a 6 Fr sheath (USCI) inserted into the descending aorta under fluoroscopic guidance. A local drug delivery balloon (3 mm, Scimed, Minneapolis, Minn.) was advanced to the left or right iliac artery and placed at the same position as the previous balloon injury site. The proximal end of the delivery catheter was placed at the internal iliac artery under fluoroscopic control as a landmark reference. The balloon was inflated to 6 atm and 1 μmol/kg lutetium texaphyrin (LuT2BET) (2 mM in 5% mannitol) was infused intraarterially adjacent to the atheroma at a rate of 0.2 ml/min. Fifteen minutes post infusion a 0.9 mm optical fiber with a 3 cm cylindrical diffuser (Laserscope Inc., San Jose, Calif.) connected to an argon pumped dye laser (732 nm, Coherent Inc., Palo Alto, Calif.) delivered intravascular light at 180 J/cmF. One rabbit served as a light alone (no LuT2BET) control.
Two weeks following light treatment, each animal was euthanized and both iliac arteries were carefully removed from the adjacent tissue. Care was taken to harvest the exact portion of the artery where local drug delivery occurred by matching the anatomy with the respective fluoroscopic picture. The contralateral artery in the LuT2BET-treated rabbit served as a sensitizer alone control vessel. The vessels were fixed in 10% buffered formalin, embedded in paraffin and stained sequentially with RAM 11 (an antibody that binds with a cytoplasmic antigen in rabbit macrophages (DAKO)), and hematoxylin and eosin (H&E) for light microscopic analysis and planimetry.

Redox potentials listing = format: physicochemical
Description: Texaphyrin is a known radiosensitizer. Not wanting to be bound by theory, texaphyrin is thought to act as a radiosensitizer in the following manner. Oxygen is the ultimate electron acceptor in physiological systems. However, texaphyrins have a redox potential below that of oxygen.

[5] = system: artery closure after angioplasty; conditions: in vivo; cited from earlier work

CC(=O)[O-].CC(=O)[O-].CCc1c(CC)c2cc3nc(cnc4cc(OCCOCCOCCOC)c(OCCOCCOCCOC)cc4ncc4nc(cc1[n-]2)C(CCCO)=C4C)C(C)=C3CCCO.O.[Gd+3] [GdT2BET]
restenosis in H&E sections, animals of four treated ([1]; 20 μmol/kg i.v. 22 hours after balloon denudation, 7 Gray X-ray 2 hours later, controls 100% restenosis): three had no evidence of restenosis | restenosis, lumen circumference affected in the fourth animal ([1]; 20 μmol/kg i.v. plus 7 Gray): up to 40% | cardiac toxicity (histologic evaluation) [2]: did not significantly exacerbate cardiac toxicity

CC(=O)[O-].CC(=O)[O-].CCc1c(CC)c2cc3nc(cnc4cc(OCCOCCOCCOC)c(OCCOCCOCCOC)cc4ncc4nc(cc1[n-]2)C(CCCO)=C4C)C(C)=C3CCCO.O.[Lu+3] [LuT2BET]
maximum tolerated dose [3]: 5.2 mg/kg | macrophages in treated lesion in intima (RAM 11 quantitative analysis) ([4]; 1 μmol/kg intraarterial plus 732 nm light, two weeks after light, versus 21±18%, P<<0.01): 5.1±5.3% | macrophages in treated lesion in media (RAM 11 quantitative analysis) ([4]; 1 μmol/kg intraarterial plus 732 nm light, two weeks after light, versus 22±20%, P<<0.01): 7.7±10% | Mean % plaque area in the treated segments ([4]; 1 μmol/kg intraarterial, 732 nm light 15 min post infusion, two weeks after light, nontreated segments 81±12%, P<<0.01): 73±10% | destruction of activated macrophages ([4]; with photoirradiation): selectively destroys activated macrophages

CC(=O)O.CC(=O)O.CCc1c(CC)c2cc3nc(cnc4cc(OCCOCCOCCOC)c(OCCOCCOCCOC)cc4ncc4nc(cc1[n-]2)C(CCCO)=C4C)C(C)=C3CCCO.[Gd] [GdT2B2]
redox potential (Redox potentials listing): +0.08 V.

B1: Abciximab (antibody, chains of the INN, looked up, V domains shown)
VH: EVQLQQSGTVLARPGASVKMSCEASGYTFTNYWMHWVKQRPGQGLEWIGAIYPGNSDTSYIQKFKGKAKLTAVTSTTSVYMELSSLTNEDSAVYYCTLYDGYYVFAYWGQGTLVTVSA
VL: EIVLTQSPVTLSVTPGDSVSLSCRASRDISNNLHWFQQTSHESPRLLIKYASQSMSGIPSRFSGSGSGTDFTLSINSVETEDFGMYFCQQTNSWPYTFGGGTKLEIK
modifications: Fab
reduction of the risk of artery closure after angioplasty [5]: up to 70%
